One assay deals with porcine oocytes. Nature of the assay: Porcine oocyte in vitro maturation (IVM) in cytokine-supplemented medium, then IVF and culture to blastocyst. The class given is cell-based. Particulars: for efficiency of producing nuclear matured (MII) oocytes / oocyte developmental competence (ability of zygotes to form blastocysts after IVF): single cytokine in IVM medium; for efficiency of producing nuclear matured (MII) oocytes: 42 hr, versus control; for oocyte developmental competence (ability of zygotes to form blastocysts after IVF): 6 days culture. As for the experimental part: The individual effects of FGF2, LIF, and IGF-1 on maturation of oocytes derived from pre-pubertal pre-pubertal gilts after commercial slaughter were examined after each had been added to an otherwise standard, chemically-defined medium comprised of TCM 199 supplemented with 10 ng/ml EGF, 0.5 μg/ml LH, 0.5 μg/ml FSH, 3.05 mM glucose, 0.91 mM sodium pyruvate, 0.57 mM cysteine, 10 ng/mL gentamicin, and 0.1% polyvinyl alcohol (PVA). After 42 hr in the oocyte maturation medium with the single cytokine addition, oocytes were in vitro fertilized and the resulting zygotes were cultured under standard in vitro culture conditions for 6 days. […] (FIG. 2). Optimal concentrations of FGF2 (40 ng/ml) and LIF (20 ng/ml) were added in combination to the standard IVM medium. The combination of FGF2 and LIF improved nuclear maturation beyond that achieved with the single factors in Example 1 (Table 1). […] The effects of adding the IGF-1 at the optimal concentration of 20 ng/ml in combination with the other two cytokines to the IVM medium was then examined. The combination of all three cytokines (FGF2, LIF, and IGF-1) increased oocyte nuclear maturation to 89%, as compared to 55% in controls (FIG. 5 and Table 2, column 4). After IVF, zygotes from oocytes cultured in medium comprising FGF2, LIF, and IGF-1 advanced to the blastocyst stage more efficiently than controls (49.7% versus 38%). […] Oocytes derived from medium comprising FGF2, LIF, and IGF-1 also provided improved production of blastocysts following somatic cell nuclear transfer (SCNT), which requires removal of nuclear material from the egg followed by fusion of the enucleated oocyte with a somatic donor cell (FIG. 5). [table]

Assay [1] relates to oocyte meiotic maturation. Kind of assay: Kinase inhibitors in FGF2, LIF and IGF-1 supplemented medium, oocyte meiotic maturation. The class given is cell-based, porcine. Conditions: PD173074 10 μM, JAK inhibitor I 6 μM, OSI-906 10 μM, PD0325901 10 μM. An excerpt: FIG. 6. Supplementation of FGF2, LIF and IGF-1 (FLI) regulates the changes of MAPK1/3 activation in cumulus cells (CCs) during IVM. […] Each CC sample was pooled from 50 cumulus oocyte complexes (COCs). This experiment was replicated four times. Asterisk denotes a significant difference between control and treatment, P<0.05. […] The experiments were replicated four times with 1208 oocytes. Different letters denote significant differences, P<0.05.

Setting [2] is: Table 1, after IVF, means ± SEM.
Setting [3] is: Table 1, porcine IVM medium, FGF2 40 ng/ml, LIF 20 ng/ml, means ± SEM.
[4] abbreviates: Table 2, IVF embryos cultured in MU1-PZM six days, means ± SEM.

Marks after values point to notes of the source that are not given here.

As to leukemia inhibitory factor [LIF], in the assay with porcine oocytes (setting [2]), the “Blastocysts/Oocyte (%)” value was 19.6 ± 3.6^ab % and the “Blastocysts/Zygote (%)” value is listed as 25.4 ± 4.0^b %. For the same compound, the “Nuclear Maturation (%)” value in the assay with porcine oocytes (setting [3]) is 75.7 ± 3.1^a %. Besides, in the assay on porcine oocytes, the “efficiency of producing nuclear matured (MII) oocytes” value (“efficiency” below) is “improved” and the “oocyte developmental competence (ability of zygotes to form blastocysts after IVF)” value (“oocyte developmental competence” below) is “none of the cytokines improved”.

As to `C[C@]1(O)C[C@@H](c2nc(-c3ccc4ccc(-c5ccccc5)nc4c3)c3c(N)nccn32)C1` [OSI-906], the oocyte meiotic maturation entry in assay [1] is “more moderate declines”.

Turning to `CCN(CC)CCCCNc1ncc2cc(-c3cc(OC)cc(OC)c3)c(NC(=O)NC(C)(C)C)nc2n1` [PD173074], the oocyte meiotic maturation result in assay [1] was “more moderate declines”.

Consider insulin-like growth factor 1 [IGF-1], for which, in the assay with porcine oocytes (setting [4]), the “Blastocysts/Oocyte (%)” value is given as 33.6 ± 5.5^b % and the “Blastocysts/Zygote (%)” value was 44.7 ± 6.7^ab %. Moreover, in the assay on porcine oocytes (Table 2, TCM-199 maturation medium, FGF2 40, LIF 20, IGF-1 20 ng/ml, means ± SEM), the “Nuclear Maturation (%)” value is given as 74.8 ± 3.6^b %. Also, the “Total blastocyst cell number” value with porcine oocytes (Table 2, day 6 blastocysts, means ± SEM) is reported as 34.7 ± 7.8^b. Further, in the assay with porcine oocytes, the “efficiency” value is on record as “improved” and the “oocyte developmental competence” value is recorded as “none of the cytokines improved”.

Regarding JAK inhibitor I, in assay [1], the oocyte meiotic maturation result was “more moderate declines”.

Turning to `O=C(NOC[C@H](O)CO)c1ccc(F)c(F)c1Nc1ccc(I)cc1F` [PD0325901], the oocyte meiotic maturation entry in assay [1] was “almost complete block of meiotic maturation”.

Consider fibroblast growth factor 2 [FGF2], for which, in the assay with porcine oocytes (setting [2]), the “Blastocysts/Oocyte (%)” value was 25.6 ± 3.6^ab % and the “Blastocysts/Zygote (%)” value is reported as 35.1 ± 4.9^a %. Also, the “Nuclear Maturation (%)” value in the assay on porcine oocytes (setting [3]) is 73.2 ± 3.4^a %. Also, in the assay on porcine oocytes, the “efficiency” value is listed as “improved” and the “oocyte developmental competence” value is “none of the cytokines improved”.

For the origin of these results see patent US11753622B2, “Medium supplement to increase the efficiency of oocyte maturation and embryo culture in vitro” (The Curators of the University of Missouri, priority 2016, dated 2023).
